Test results: publication PMC10384175, “In Vitro and In Silico Evaluation of Antiproliferative Activity of New Isoxazolidine Derivatives Targeting EGFR: Design, Synthesis, Cell Cycle Analysis, and Apoptotic Inducers” (Pharmaceuticals, 2023)
Each block holds one compound with its values, some of them ahead of it.

Columns and labels:
[1] = tested on: SKOV3; experiment: Flow cytometric cell cycle analysis (PI), SKOV3; format: cell-based, human; conditions: for cell cycle arrest phase: SKOV3; for (%) of cells in G0/G1 / (%) of cells in S / decrease in the G2/M phase vs control, factor: SKOV3, 48 h at IC50
Experimental: (§1) Based on the antiproliferative activity data shown above, a flow cytometry analysis was performed to identify the cell cycle arrest induced by the selected compounds (2f and 2g) in the three cell lines, for 48 h at their respective IC50 concentrations (Figure 4). The cell cycle (G1, S, and G2) was analyzed after staining the DNA with propidium iodide (PI). […] Towards SKOV3 cell lines, the population of cells in the G0/G1 phase was not affected for 2f (31.4 ± 1.2 vs. 30.8 ± 1.5) and increased for 2g (31.4 ± 1.2 vs. 44.5 ± 0.6). Moreover, in the S phase, it was increased for 2f (43.1 ± 0.6vs. 59.5 ± 0.2) and not affected for 2g (43.1 ± 0.6 vs. 44.8 ± 1.6), however, it decreased in the G2/M phase for both 2f and 2g by a factor of 2.83 and 2.44, respectively.
(§2) The effect of selected compounds on cell cycle phase distribution was determined by flow cytometry using the same protocol described elsewhere.

[2] = tested on: A549; experiment: MTT antiproliferative assay, A549; format: cell-based, human
Experimental: Cell viability was measured according to the previously published work [42].

[3] = target: EGFR tyrosine kinase (Homo sapiens, UniProt P00533); experiment: EGFR tyrosine kinase inhibition; format: biochemical; conditions: enzymatic inhibition
Chain of EGFR tyrosine kinase (P00533 25-1210): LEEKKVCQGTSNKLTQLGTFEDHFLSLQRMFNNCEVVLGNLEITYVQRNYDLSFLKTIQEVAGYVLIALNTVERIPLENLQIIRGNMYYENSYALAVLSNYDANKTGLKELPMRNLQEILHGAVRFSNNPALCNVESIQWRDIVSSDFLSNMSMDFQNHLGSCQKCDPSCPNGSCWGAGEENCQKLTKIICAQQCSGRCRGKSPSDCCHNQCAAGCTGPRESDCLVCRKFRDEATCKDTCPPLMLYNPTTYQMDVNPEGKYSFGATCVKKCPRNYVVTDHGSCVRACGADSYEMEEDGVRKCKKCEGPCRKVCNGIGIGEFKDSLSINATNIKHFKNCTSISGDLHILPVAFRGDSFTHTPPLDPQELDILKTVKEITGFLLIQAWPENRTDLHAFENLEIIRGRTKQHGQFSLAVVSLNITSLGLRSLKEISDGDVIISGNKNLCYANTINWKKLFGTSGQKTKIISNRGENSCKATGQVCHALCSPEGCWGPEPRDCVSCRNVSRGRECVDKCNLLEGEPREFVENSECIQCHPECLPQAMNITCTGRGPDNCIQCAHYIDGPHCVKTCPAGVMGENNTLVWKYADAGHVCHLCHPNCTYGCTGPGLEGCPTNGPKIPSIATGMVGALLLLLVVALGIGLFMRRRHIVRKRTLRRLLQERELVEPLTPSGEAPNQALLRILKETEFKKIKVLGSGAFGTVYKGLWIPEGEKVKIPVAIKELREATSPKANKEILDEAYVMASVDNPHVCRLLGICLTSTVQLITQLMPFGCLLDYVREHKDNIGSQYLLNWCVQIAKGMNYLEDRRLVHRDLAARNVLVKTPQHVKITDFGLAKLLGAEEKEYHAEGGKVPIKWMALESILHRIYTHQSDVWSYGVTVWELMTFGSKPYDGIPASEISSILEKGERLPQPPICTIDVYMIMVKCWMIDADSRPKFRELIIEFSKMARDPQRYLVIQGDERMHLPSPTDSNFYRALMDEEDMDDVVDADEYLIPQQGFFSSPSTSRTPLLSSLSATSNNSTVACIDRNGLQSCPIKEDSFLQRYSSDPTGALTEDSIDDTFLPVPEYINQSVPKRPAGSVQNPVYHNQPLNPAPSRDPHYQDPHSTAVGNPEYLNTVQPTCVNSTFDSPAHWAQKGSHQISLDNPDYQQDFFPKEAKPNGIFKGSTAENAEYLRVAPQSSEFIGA
Experimental: The EGFR activity was determined based on the method reported by E.A.A. El-Meguid et al. [43].

[4] = tested on: A549; experiment: Cellular apoptosis assay (flow cytometry), A549; format: cell-based, human; conditions: A549, at IC50, 48 h
[5] = tested on: SKOV3; experiment: Cellular apoptosis assay (flow cytometry), SKOV3; format: cell-based, human; conditions: SKOV3, at IC50, 48 h
[6] = tested on: MCF-7; experiment: MTT antiproliferative assay, MCF-7; format: cell-based, human
Experimental: (§3) Compounds 2a–g were tested for their growth inhibitory effectiveness against MCF-7, A-549, and SKOV3 cell lines by means of MTT assay, with doxorubicin used as an anticancer standard drug. […] Remarkably, we note the high antiproliferative activity of 2c and 2d, only towards SKOV3.
(§4) The Roswell Park Memorial Institute medium (RPMI 1640, Gibco, Grand Island, NY, USA) was used to culture the following cancer cell lines including MCF-7, A549, and SKOV3. Cells were grown in FBS (10%) and 100 units mL PS (penicillin/streptomycin) and were supplied to the same medium under standard cell conditions in an incubator (5% of CO2, at 37 °C).
(§5) Cell viability was measured according to the previously published work.

[7] = tested on: MCF-7; experiment: Cellular apoptosis assay (flow cytometry), MCF-7; format: cell-based, human; conditions: MCF-7, at IC50, 48 h
[8] = tested on: MCF-7; experiment: Flow cytometric cell cycle analysis (PI), MCF-7; format: cell-based, human; conditions: for cell cycle arrest phase: MCF-7; for (%) of cells in G0/G1 / (%) of cells in S: MCF-7, 48 h at IC50
Experimental: as §1, §2

[9] = tested on: A549; experiment: Flow cytometric cell cycle analysis (PI), A549; format: cell-based, human; conditions: for cell cycle arrest phase: A549
Experimental: The effect of selected compounds on cell cycle phase distribution was determined by flow cytometry using the same protocol described elsewhere [44].

[10] = tested on: SKOV-3; experiment: MTT antiproliferative assay, SKOV3; format: cell-based, human
Experimental: as §3, §4, §5

[11] = Homo sapiens, SK-OV-3, MTT assay

Compound: CC(C)[C@@H]1CC[C@@H](C)C[C@@]12N(C)C(=O)[C@@H]1C[C@@H](Cc3ccccc3O)ON12 [2f, (1S,2S,2′R,3a′S,5R)-2′-(2-Hydroxybenzyl)-2-isopropyl-5,5′-dimethyldihydro-2′H-spiro[cyclohexane-1,6′-imidazo [1,5-b]isoxazol]-4′(5′H)-one]
cell cycle arrest phase [1]: S phase | (%) of cells in G0/G1 [1]: 31.4 ± 1.2% | (%) of cells in S [1]: 59.5 ± 0.2% | decrease in the G2/M phase vs control, factor [1]: 2.83 | IC50 ([2]; Homo sapiens, A549, MTT assay): 9.7 ± 0.7 µM | IC50 ([2]; MTT assay): 12.1 ± 1.1 µM | IC50 [3]: 0.298 ± 0.007 µM | Early apoptosis [4]: 16.72% | Intact cells [4]: 7.39% | Late apoptosis [4]: 70.5% | Necrosis [4]: 5.39% | Total death (cellular apoptosis) [4]: 92.61% | Early apoptosis [5]: 17.9% | Intact cells [5]: 8.78% | Late apoptosis [5]: 67.16% | Necrosis [5]: 6.16% | Total death (cellular apoptosis) [5]: 91.22% | IC50 ([6]; Homo sapiens, MCF7, MTT assay): 9.7 ± 1.3 µM | IC50 ([6]; MTT assay): 17.7 ± 1 µM | Early apoptosis [7]: 70.48% | Intact cells [7]: 13.11% | Late apoptosis [7]: 15.78% | Necrosis [7]: 0.63% | Total death (cellular apoptosis) [7]: 86.89% | cell cycle arrest phase [8]: S phase | (%) of cells in G0/G1 [8]: 19 ± 1.2% | (%) of cells in S [8]: 63.3 ± 0.6% | cell cycle arrest phase [9]: G2/M phase | (%) of cells in G0/G1 ([9]; A549, 48 h at IC50): 23.1 ± 0.8%

Compound: COc1ccc(C[C@@H]2C[C@H]3C(=O)N(C)C4(C[C@H](C)CC[C@H]4C(C)C)N3O2)cc1OC (stereo partly drawn) [2d, (2S,2′R,3a′S,5R)-2′-(3,4-dimethoxybenzyl)-2-isopropyl-5,5′-dimethyldihydro-2′H-spiro[cyclohexane-1,6′-imidazo [1,5-b]isoxazol]-4′(5′H)-one]
IC50 ([2]; Homo sapiens, A549, MTT assay): 25 ± 2.5 µM | IC50 ([6]; Homo sapiens, MCF7, MTT assay): 8.7 ± 0.5 µM | IC50 [10, 11]: 27.6 ± 2.2 µM

Compound: COc1cc(C[C@@H]2C[C@H]3C(=O)N(C)[C@@]4(C[C@H](C)CC[C@H]4C(C)C)N3O2)ccc1OC(C)=O [2e, 4-(((1S,2S,2′R,3a′S,5R)-2-Isopropyl-5,5′-dimethyl-4′-oxotetrahydro-2′H-spiro[cyclohexane-1,6′-imidazo [1,5-b]isoxazol]-2′-yl)methyl)-2-methoxyphenyl acetate]
IC50 ([2]; Homo sapiens, A549, MTT assay): 53.5 ± 1.1 µM | IC50 ([6]; Homo sapiens, MCF7, MTT assay): 66.8 ± 2.7 µM | IC50 [10, 11]: 27.9 ± 1.9 µM

Compound: Cc1cccc(C[C@@H]2C[C@H]3C(=O)N(C)C4(C[C@H](C)CC[C@H]4C(C)C)N3O2)c1O (stereo partly drawn) [2c, (2S,2′R,3a′S,5R)-2′-(2-hydroxy-3-methylbenzyl)-2-isopropyl-5,5′-dimethyldihydro-2′H-spiro[cyclohexane-1,6′-imidazo [1,5-b]isoxazol]-4′(5′H)-one]
IC50 ([2]; Homo sapiens, A549, MTT assay): 35.4 ± 0.14 µM | IC50 ([6]; Homo sapiens, MCF7, MTT assay): 7.2 ± 0.2 µM | IC50 [10, 11]: 19.4 ± 1.4 µM

Compound: COc1cc(C[C@@H]2C[C@H]3C(=O)N(C)C4(C[C@H](C)CC[C@H]4C(C)C)N3O2)ccc1O (stereo partly drawn) [2a, (2S,2′R,3a′S,5R)-2′-(4-hydroxy-3-methoxybenzyl)-2-isopropyl-5,5′-dimethyldihydro-2′H-spiro[cyclohexane-1,6′-imidazo [1,5-b]isoxazol]-4′(5′H)-one]
IC50 ([2]; Homo sapiens, A549, MTT assay): 18.1 ± 0.7 µM | IC50 ([6]; Homo sapiens, MCF7, MTT assay): 21.3 ± 0.5 µM | IC50 [10, 11]: 14.5 ± 0.9 µM

Compound: (2R,2′R,3a′S,5R)-2′-(2-acetyl-6-hydroxybenzyl)-2,5,5′-trimethyldihydro-2′H-spiro[cyclohexane-1,6′-imidazo [1,5-b]isoxazol]-4′(5′H)-one [2b]
IC50 ([2]; MTT assay): 48.7 ± 0.9 µM | IC50 ([6]; MTT assay): 22.2 ± 0.3 µM | IC50 ([10]; MTT assay): 18.3 ± 0.9 µM

Compound: COC(=O)c1cc(C)cc(C[C@@H]2C[C@H]3C(=O)N(C)[C@@]4(C[C@H](C)CC[C@H]4C(C)C)N3O2)c1O [2g, Methyl 2-hydroxy-3-(((1S,2S,2′R,3a′S,5R)-2-isopropyl-5,5′-dimethyl-4′-oxotetrahydro-2′H-spiro[cyclohexane-1,6′-imidazo[1,5-b]isoxazol]-2′-yl)methyl)-5-methylbenzoate]
cell cycle arrest phase [1]: G0/G1 phase | (%) of cells in G0/G1 [1]: 44.5 ± 0.6% | (%) of cells in S [1]: 44.8 ± 1.6% | decrease in the G2/M phase vs control, factor [1]: 2.44 | IC50 ([2]; Homo sapiens, A549, MTT assay): 12.1 ± 1.1 µM | IC50 ([2]; MTT assay): 9.7 ± 0.7 µM | IC50 [3]: 0.484 ± 0.01 µM | Early apoptosis [4]: 60.72% | Intact cells [4]: 21.24% | Late apoptosis [4]: 17.69% | Necrosis [4]: 0.35% | Total death (cellular apoptosis) [4]: 78.76% | Early apoptosis [5]: 12.92% | Intact cells [5]: 3.34% | Late apoptosis [5]: 81.05% | Necrosis [5]: 2.68% | Total death (cellular apoptosis) [5]: 96.65% | IC50 ([6]; Homo sapiens, MCF7, MTT assay): 17.7 ± 1 µM | IC50 ([6]; MTT assay): 9.7 ± 1.3 µM | Early apoptosis [7]: 46.49% | Intact cells [7]: 24.83% | Late apoptosis [7]: 20.51% | Necrosis [7]: 8.17% | Total death (cellular apoptosis) [7]: 75.17% | cell cycle arrest phase [8]: G0/G1 phase | (%) of cells in G0/G1 [8]: 53.7 ± 0.6% | (%) of cells in S [8]: 36.3 ± 0.6% | cell cycle arrest phase [9]: G0/G1 phase | (%) of cells in G0/G1 ([9]; A549, 48 h at IC50): 49.3 ± 0.7% | (%) of cells in S ([9]; A549, 48 h at IC50): 40.2 ± 0.3% | decrease of population in the G2/M phase vs control ([9]; A549, 48 h at IC50): 2.37 folds | decrease of population in the S phase vs control ([9]; A549, 48 h at IC50): 1.08 folds

IC50 ([2]; Homo sapiens, A549, MTT assay): 4.2 ± 0.24 µM | IC50 ([6]; Homo sapiens, MCF7, MTT assay): 2.8 ± 0.4 µM | IC50 [10, 11]: 4.2 ± 0.013 µM
Compound: COc1cccc2c1C(=O)c1c(O)c3c(c(O)c1C2=O)C[C@@](O)(C(=O)CO)C[C@@H]3O[C@H]1C[C@H](N)[C@H](O)[C@H](C)O1 [Doxorubicin, doxorubicin, reference compound]
(%) of cells in G0/G1 [1]: 16.7 ± 1% | (%) of cells in S [1]: 30.7 ± 0.6% | Early apoptosis [4]: 9.38% | Intact cells [4]: 1.16% | Late apoptosis [4]: 88.01% | Necrosis [4]: 1.45% | Total death (cellular apoptosis) [4]: 98.84% | Early apoptosis [5]: 20.56% | Intact cells [5]: 3.25% | Late apoptosis [5]: 73.08% | Necrosis [5]: 3.11% | Total death (cellular apoptosis) [5]: 96.75% | Early apoptosis [7]: 17.12% | Intact cells [7]: 7.94% | Late apoptosis [7]: 68.7% | Necrosis [7]: 6.24% | Total death (cellular apoptosis) [7]: 92.06% | (%) of cells in G0/G1 [8]: 18.4 ± 0.9% | (%) of cells in S [8]: 34 ± 0.6% | (%) of cells in G0/G1 ([9]; A549, 48 h at IC50): 16.12 ± 0.54% | (%) of cells in S ([9]; A549, 48 h at IC50): 34.01 ± 0.24%
